pIC50: −log10 of the molar value.
What was measured:
HIV-1 (LAI) [1] = assay: p24 assay, PBMC infected with HIV-1 (LAI); assay type: cell-based, HIV-1; PBMC
HIV-1 (LAI) [2] = assay: Plaque assay, HeLa-CD4 cells infected with HIV-1 (LAI); assay type: cell-based, HIV-1; HeLa-CD4 cells; conditions: HeLa-CD4, HIV-1 (LAI), plaques formed
Experimental: (§1) HeLa-CD4 cells were tested using a plaque assay as described below. Specific cells (as described in Table 4) were detached using trypsin-EDTA for 8-10 minutes at 37° C. The cells were then centrifuged at 100 rpm for 10 minutes. Cells were resuspended in 5-10 ml of maintenance medium (Dulbecco's Modified Eagle Medium ("DMEM") containing 10% fetal calf serum, […], […], and 2 mM glutamine). Cells were maintained by splitting the culture once weekly into two 75 cm^2 T-flasks at a concentration of 3×10^4 cells/ml in a total volume of […] maintenance medium.
(§2) On day 0, the cells were plated into the wells of a 24 well tissue culture plate (Falcon #3047) at a concentration of 2.4×10^4 cells per well. The cells were incubated overnight at 37° C. The next day the medium was aspirated, and 200 μl of HIV virus at a multiplicity of infection ("MOI") of 0.03 was added to each well. The plates were then incubated for 2 hours at 37° C. After the 2 hour incubation, the cells were treated with 800 μl of drug at a concentration (in DMEM) of 1.25× of the final concentration.
(§3) The treated cells were incubated for 3 days at 37° C. On day 4 the plate was fixed with 1 ml/well of 100% methanol for 15 minutes. The wells were then aspirated and 0.5 ml of 0.3% crystal violet stain was added to the wells. […] Plaques were counted using a microscope. […]

[3] = tested on: replication defective HIV generated by 8e5 cells; assay: p24 production by 8e5 cells (p24 capture ELISA of cell lysates); assay type: cell-based, HIV; human T-cell line 8e5; conditions: for inhibiting p24 production (in words): summary of Table 3; for inhibition / p24 production: range over experiments
Experimental: The effect of several phosphorothioate antisense oligonucleotides on HIV replication was determined by measuring p24 (an HIV-specific polypeptide) produced by 8e5 cells. The 8e5 cell line is a human T-cell line that generates replication defective HIV (Folks et al. U.S. Pat. No. 4,752,565). The defective HIV contains a single integrated provirus that expresses all HIV proteins at levels typically observed in chronically infected cell lines except those encoded by pol. This defect is due to a single base insertion that causes a frame shift mutation in pol.
Oligonucleotides having phosphorothioate linkages were synthesized according to Bhatt supra. Synthesized oligonucleotides were purified using HPLC, extracted with ethyl acetate, ethanol precipitated, washed with 80% ethanol and suspended in sterile water to generate high concentration stock solutions that facilitated small volume addition (2-20 μl).
Phosphorothioate antisense oligonucleotides were added directly to 8e5 cultures. Sterile water and non-specific phosphorothioate oligonucleotides were utilized as controls. The cultures were harvested after 4 days, and the viable cell count and production of p24 antigen were determined. Cell lysates were prepared by spinning down cells from 2 ml wells at 1000 rpm for 10 minutes at 4° C. using a Beckman J-10, and removing the supernatant. The cells were then washed with 5 ml of Hanks balanced salt solution (Gibco) or sterile saline solution (0.9% NaCl), and spun down at 1000 rpm for 10 minutes at 4° C. using a Beckman J-10. The cells were resuspended in 300 μl of TSM (10 mM Tris-HCl pH 7.5, 150 mM NaCl, 2 MM MgCl2) with 0.5% NP-40, and incubated on ice for 5 minutes. The nuclei and cellular debris were then spun down at 2000 rpm using a Beckman J-10. The amount of p24 antigen was determined in cell lysates using a p24 capture ELISA (American Biotechnologies, Inc.).
The ELISA assay for p24 was selected as a measure of HIV replication because expression of tat and rev are required for efficient p24 production. The percentage of HIV p24 production was calculated as p24/cell production by antisense treated cells divided by p24/cell production by control treated cells. Control treated cells were treated with a random control phosphorothioate oligonucleotide (SEQ. ID. NO. 47: AGGCTTCATCACGTGGACATTGACG).

human bone marrow cells = assay: Cytotoxicity: colony formation of human bone marrow cells; assay type: cell-based; conditions: agar medium with G-CSF, eight days in culture
Experimental: The cytotoxicity of the test oligonucleotides was determined in a system using primary human blood cells using techniques known to those of skill in the art to measure cytotoxicity of anti-neoplastic agents. Human bone marrow cells were harvested and washed in an isotonic solution, then incubated in tissue culture medium containing 0.3% (w/v) agar, 20% (v/v) fetal calf serum, and 10 ng/ml granulocyte-colony stimulating factor with varying amounts of the two test oligonucleotides. The number of colonies formed were measured after eight days in culture. The IC50 for colony formation in this experiment was 2-3 μM for SEQ. ID. NO: 18 and 20-30 μM for SEQ. ID. NO: 22.

[4] = In vivo mouse study: blood parameters, body weight and organ morphology; conditions: mice, 100 mg/kg
Experimental: In vivo experiments were also performed using rodent models. These experiments focused on the potential for gross morphological changes in blood tissue upon administration of a phosphorothioate linked oligonucleotide having the nucleic acid sequence of SEQ. ID. NO: 18 (in a solution of PBS). Three mice were given the oligonucleotide at a dose of 100 mg/kg body weight. Four control mice were given PBS alone. Blood samples were taken from each animal at t=0, and at 24 hours each animal was sacrificed and the organs removed. The experimental findings with regard to blood parameters are shown in Table 5, and the results obtained upon visual inspection of the organs are shown in Table 6.

[5] = tested on: HIV patient isolates (AO18); assay: Plaque assay, HeLa-CD4 cells infected with patient isolates (AO18); assay type: cell-based, HIV; HeLa-CD4 cells; conditions: plaques formed
Experimental: as §1, §2, §3

[6] = tested on: HIV patient isolates (PO22); assay: Plaque assay, HeLa-CD4 cells infected with patient isolates (PO22); assay type: cell-based, HIV; HeLa-CD4 cells; conditions: plaques formed
Experimental: as §1, §2, §3

HIV-2 (ROD) = assay: Plaque assay, HeLa-CD4 cells infected with HIV-2 (ROD); assay type: cell-based, HIV-2; HeLa-CD4 cells; conditions: HeLa-CD4, HIV-2 (ROD), plaques formed
Experimental: as §1, §2, §3

[7] = 10 μM, Table 3 (small length oligonucleotides)
[8] = 20 μM, Table 3 (small length oligonucleotides)
[9] = 2 μM, 4 days, Table 2, relative to cells treated with random control oligonucleotide SEQ. ID. NO. 47
[10] = 10 μM, 4 days, Table 2, relative to cells treated with random control oligonucleotide SEQ. ID. NO. 47

## Cc1cn([C@H]2C[C@H](N=[N+]=[N-])[C@@H](CO)O2)c(=O)[nH]c1=O [AZT, reference compound]
HIV-1 (LAI) [1]; Human immunodeficiency virus 1
  pIC50: 8.52
HIV-1 (LAI) [2]; Human immunodeficiency virus 1
  pIC50: 7.70 to 8.15

## ATTCTGCTATGTCGACACCCAA (ATTCTGCTATGTCGACACCCAA; chemistry not given here) [SEQ. ID. NO. 46]
[3]; [7]
  % p24 production: 87%
[3]; [8]
  % p24 production: 81%
[3]
  inhibiting p24 production (in words): effective

## ATTGGTACAAGCAGTTTTAGGCT (ATTGGTACAAGCAGTTTTAGGCT; chemistry not given here) [SEQ. ID. NO. 31]
[3]; [9]
  % p24 production: 100%
[3]; [10]
  % p24 production: 15%

## CGGGCCTGTCGGGTCCCCTCGGGA (CGGGCCTGTCGGGTCCCCTCGGGA; chemistry not given here) [SEQ. ID. NO. 36]
[3]; [9]
  % p24 production: 71%
[3]; [10]
  % p24 production: 89%

## CTGTCGGGTC CCCTCGGG (CTGTCGGGTCCCCTCGGG; chemistry not given here) [SEQ. ID. NO. 26]
[3]; [8]
  % p24 production: 44%
[3]
  inhibiting p24 production (in words): particularly effective

## CTTCGGGCCTGTCGGGTCCCCTCGGG (CTTCGGGCCTGTCGGGTCCCCTCGGG; chemistry not given here) [SEQ. ID. NO. 18]
HIV-1 (LAI) [1]
  pIC50: 6.92
[3]; [9]
  % p24 production: 55%
[3]; [10]
  % p24 production: 0%
[3]
  inhibition: 70-100%
  p24 production: 0 to 30%
Human bone marrow cells
  pIC50: 5.52 to 5.70
[4]; 0 hr
  HGB: 16.0 ± 0.2 g/dL
  PLT: 111.8 ± 2.7 ×10^4 /μl
  RBC: 1032.3 ± 8.1 ×10^4 /μl
  WBC: 94.7 ± 18.2 ×10^2 /μl
[4]; 24 hours
  Body Weight: Unchanged
[4]; 24 hours, visual inspection
  Morphological findings, Bone Marrow: Normal
  Morphological findings, Heart: Normal
  Morphological findings, Kidney: Normal
  Morphological findings, Liver: Normal
  Morphological findings, Spleen: Slight Splenomegaly
  Morphological findings, Thymus: Normal
[4]; 24 hr
  HGB: 15.3 ± 0.5 g/dL
  PLT: 99.4 ± 0.9 ×10^4 /μl
  RBC: 990.3 ± 34.3 ×10^4 /μl
  WBC: 79.3 ± 15.3 ×10^2 /μl
[5]; AZT Resistant
  pIC50: 7.26
[5]; AZT Sensitive
  pIC50: 7.10
HIV-1 (LAI) [2]
  pIC50: 6.70
[6]; AZT Resistant
  pIC50: 7.74
[6]; AZT Sensitive
  pIC50: 7.35
HIV-2 (ROD)
  pIC50: 7.74

## GAGCTCTTCGTCGCTGTCTCCGCTTCT (GAGCTCTTCGTCGCTGTCTCCGCTTCT; chemistry not given here) [SEQ. ID. NO. 17]
[3]; [9]
  % p24 production: 99%
[3]; [10]
  % p24 production: 56%

## GCCTATTCTGCTATGTCGACACCCAA (GCCTATTCTGCTATGTCGACACCCAA; chemistry not given here) [SEQ. ID. NO. 35]
[3]; [9]
  % p24 production: 56%
[3]; [10]
  % p24 production: 0%
[3]
  inhibition: 70-100%
  p24 production: 0 to 30%

## GCCTGTCGGG TCCC (GCCTGTCGGGTCCC; chemistry not given here) [SEQ. ID. NO. 22]
[3]; [7]
  % p24 production: 3%
[3]; [8]
  % p24 production: 31%
[3]
  inhibiting p24 production (in words): particularly effective
Human bone marrow cells
  pIC50: 4.52 to 4.70

## GCCTGTCGGG TCCT (GCCTGTCGGGTCCT; chemistry not given here) [SEQ. ID. NO. 20]
[3]; [7]
  % p24 production: 55%
[3]; [8]
  % p24 production: 42%
[3]
  inhibiting p24 production (in words): particularly effective

## GCTTCTTCCTGCCATAGGAGA (GCTTCTTCCTGCCATAGGAGA; chemistry not given here) [SEQ. ID. NO. 33]
[3]; [9]
  % p24 production: 109%
[3]; [10]
  % p24 production: 74%

## GGGCCTGTCGGGTCCCCTCGGG (GGGCCTGTCGGGTCCCCTCGGG; chemistry not given here) [SEQ. ID. NO. 29]
[3]; [7]
  % p24 production: 79%
[3]; [8]
  % p24 production: 58%
[3]
  inhibiting p24 production (in words): particularly effective

## TTGGGAGGTG GGTTGCTTTG (TTGGGAGGTGGGTTGCTTTG; chemistry not given here) [SEQ. ID. NO. 14]
[3]; [9]
  % p24 production: 103%
[3]; [10]
  % p24 production: 66%

Source: patent US5919701A, “Oligonucleotides with activity against human immunodeficiency virus” (priority 1997, dated 1999)
